The text below walks through data of patent US20200069609A1 (WIGEN BIOMEDICINE TECHNOLOGY (SHANGHAI) CO., LTD., priority 2017, published 2020).

For assay [1], the target named is T1, LC3B (1-125) (Homo sapiens, UniProt Q9GZQ8).
T1 construct: GST (N, cleaved yes); made in house
Briefly: Protein thermal shift assay. In kind it is binding. To be noted: protein 4 μM, compound 40 μM. As to the method:
(§1) GST-LC3B (1-125) (SEQ ID NO: 2) and each mutant protein were expressed by IPTG induction in DE3 competent cells at 16° C. After collecting and resuspending DE3 competent cells, the cells were sonicated and centrifuged. The resulted supernatant was hanged on the column (GSTrap FF, GE), followed by eluting with glutathione-containing eluant, and then the target protein was produced by gel filtration chromatography. This fusion protein was used directly in the fluorescence polarization assay. The proteins used in the protein thermal shift assay, mass spectrometry, and protein crystallization experiments were produced by PP enzyme or thrombin digestion and the following gel filtration chromatography to the GST-fusion protein obtained by the above method.
(§2) The protein thermal shift assay is used to test the effect of compounds on the thermodynamic stability of proteins via the Quant Studio 6 Flex Real-Time PCR system. Protein LC3B (1-125) (SEQ ID NO: 3) and each mutant protein (SEQ ID NO: 7-15) (final concentration 4 μM), environmentally sensitive dye (5×SYPRO orange, Invitrogen) and compound (final concentration 40 μM) were mixed in the buffer solution (50 mM HEPES pH 7.5, 1 mM DTT) to a total volume of 20 μL. The sample was heated from 25° C. to 95° C. with a heating rate of 3%. Changes in fluorescence intensity were monitored and each melting temperature (Tm), represented by AT in the unit of ° C., was calculated by Protein Thermal Shift Software 1.1 (ABI).

The target in assay [2] is T1, LC3B (1-125). Briefly: Mass spectrometry of LC3B incubated with compound. Particulars: trypsin digest, b and y type ions. The protocol:
For further verifying the covalent binding, LC3B (1-125) (SEQ ID NO: 3) protein was separately incubated with compounds B, C and D for mass spectrometry.
After incubating the compound and protein for a given period of time, the product was separated by gel electrophoresis, and the protein having an appropriate size was digested by trypsin. The resulting polypeptide was dissolved and loaded onto a C18 reverse-phase column coupled to an EASY-nLC 1000 system. The polypeptide was eluted to perform mass spectrometry and Mascot search.

The next assay deals with T2, GST-LC3B (Homo sapiens, UniProt Q9GZQ8).
T2 construct: This fusion protein was used directly in the fluorescence polarization assay; made in house
Briefly: Fluorescence polarization (FP) assay, GST-LC3B with FITC-labeled peptide. Particulars: GST-LC3B 180 nM, FITC-labeled peptide 18 nM. In kind it is binding. The protocol:
as §1
Recombinant protein GST-LC3B (final concentration 180 nM) (SEQ ID NO: 2) and N-terminal FITC-labeled peptide (SEQ ID NO: 5, final concentration 18 nM) were placed in FP buffer solution (50 mM HEPES pH 7.5, 0.1 mg/ml BSA and 1 mM DTT), into which the compound gradually diluted by the FP buffer was added, then the resulted mixture was incubated in dark at 25° C. Fluorescence polarization values were monitored (PerkinElmer Envision, the wavelength of the […]) and the IC50 values were calculated by the GraphPad Prism 6.0 program.
Representation of the IC50 value of the compounds: “[…]<IC50≤1 mM” is considered as having low activity (+) against LC3B. “15 μM<<IC50≤100 μM” of the compound is considered as having moderate activity (++) against LC3B. “3 μM<IC50≤15 μM” is considered as having high activity (+++) against LC3B. “IC50≤3 μM” is considered as having higher activity (++++) against LC3B.
Background: Polarisation of emitted light reports the rotation of a fluorescent probe.

Assay [3] has as its system LC3B mutants K8A, K30A, K39A, K42A, K51A, K65A, K103A, K122A. Description: Protein thermal shift assay on lysine-to-alanine mutants other than K49A. The format is binding, human. To be noted: all lysine-to-alanine mutants except K49A; protein 4 μM, compound 40 μM. The protocol:
as §2
(§3) LC3B totally has 9 lysines, and for investigating the site selectivity of Compound A, all the 9 lysines were mutated to alanine (K8A, K30A, K39A, K42A, K49A, K51A, K65A, K103A, K122A; SEQ ID NO:7-15).

Another assay has as its target T3, LC3B K49A mutant (Homo sapiens, UniProt Q9GZQ8, K49A).
T3 construct: GST (N, cleaved yes); made in house
Description: Protein thermal shift assay on K49A mutant. In kind it is binding. As to the method: as §2, §3

The target of the next assay is T4, LC3B (2-119) (Homo sapiens, UniProt Q9GZQ8).
T4 construct: GST (N, cleaved yes); made in house
Briefly: Crystal complex structure of LC3B protein and small molecule. Particulars: crystal soaked with compound 1-5 mM. As to the method: A vacant protein crystal of LC3B (2-119) (SEQ ID NO: 4) was obtained by the sit-drop method, and then the crystal was taken out and soaked in a bath containing Compound A with a final concentration of 1-5 mM. The diffraction data were collected at the 19U1 line station of Shanghai Synchrotron Radiation Facility. And the diffraction data were integrated by XDS software and then compressed by Aimless module in CCP4. The LC3B protein structure with a PDB number of 3VTU was used as a template to perform molecular replacement by Phaser module to obtain the initial phase information, and then final refinement was performed by PHENIX and COOT.

A further assay has as its system Hela cells. Description: Immunofluorescence staining of autophagosomes in Hela cells. In kind it is cell-based. Particulars: 30 μM or 100 μM for 12 h, then serum-free starvation 24 hours; compared with control group. As to the method: For further investigating the effects of compounds on cell autophagosomes, Hela cells were seeded onto glass coverslips in 6-well plate and cultured until the cells being in good conditions, which were treated with 30 μM or 100 μM of Compound B for 12 h, then replaced to a serum-free medium and starved for 24 hours. The cells were pre-cooled for 10 minutes, then punched with 0.2% Triton X-100 and stood at room temperature for 10 minutes. Next, the cells were blocked with PBS containing 2.5% BSA and incubated overnight with a 4 degree anti-LC3B primary antibody, after which the primary antibody was recognized with a fluorescent secondary antibody, the nuclei were stained with DAPI and photographed under a microscope.

As for `NC=C1C(=O)CC(c2ccccc2)CC1=O` (stereo not drawn) [Compound C, 2-(aminomethyl-ene)-5-phenyl-cyclohexane-1,3-dione], the “ΔT (melting temperature shift)” value at LC3B (1-125) [1] (Table 1) stood at 2.87 °C. Besides, the “covalent modification of LC3B by mass spectrometry” value at LC3B (1-125) [2] was “covalently modified the lysine at position 49 in LC3B”. Besides, half-maximal inhibition at GST-LC3B (Table 1, 25° C.) (IC50) required 28.8 µM.

In the case of `CC1=CCC(C(=O)O)C(C(=O)Nc2ccc(-c3nc4ccc(C)cc4s3)cc2)C1` (stereo not drawn) [compound 1, reference compound], on LC3B (1-125) [1] (Table 2, comparative compounds), the “ΔT (melting temperature shift)” value was 0 °C. Further, at GST-LC3B (Table 2, comparative compounds), the IC50 – broadly, the concentration that gives 50% inhibition – was determined as 46 µM.

Take “2-((Dimethyl amino)methyl- ene)-5-(tlhio- phen-2-yl)cyclo- hexane-1,3- dione [Compound A]”: the “ΔT (melting temperature shift)” value at LC3B (1-125) [1] (Table 1) was 10.37 °C. Also, the “thermal shift of LC3B mutants” value in assay [3] is “significant thermal shift”. For the same compound, at LC3B K49A mutant (concluded from thermal shift of the 9 lysine mutants), the “site selectivity for lysine at position 49 in LC3B” value is recorded as “selectively modify the lysine at position 49”. The compound further had an IC50 against GST-LC3B (Table 1, 25° C.) of 1.56 µM. Also, the “covalent linkage in crystal complex” value at LC3B (2-119) is listed as “covalently linked to the lysine residue (ε-amino group) at position 49 in LC3B”.

Turning to `Cc1cc(NS(=O)(=O)c2ccc(NC(=O)c3ccc(C(=O)Nc4ccc(S(=O)(=O)Nc5cc(C)on5)cc4)cc3)cc2)no1` [compound 4, reference compound], the “ΔT (melting temperature shift)” value at LC3B (1-125) [1] (Table 2, comparative compounds) was determined as 1.8 °C. Also, the half-maximal inhibitory concentration (IC50) against GST-LC3B (Table 2, comparative compounds) worked out at 28 µM.

As for `Cc1ccc(C2CC(=O)C(=CNCCN3CCN(C(=O)C(C)C)CC3)C(=O)C2)cc1` (stereo not drawn) [H], the IC50 against GST-LC3B (Table 1, 25° C.) was 5 µM.

In the case of “LBP2: positive control polypeptide, LBP2 (SEQ ID NO: 6) (GGDDDWTHLSSKEVD; LBP2) [reference compound]”, the “thermal shift of LC3B mutants” value in assay [3] is reported as “significant heat shift”. Moreover, the “thermal shift of LC3B K49A mutant” value with LC3B K49A mutant (K49A mutant, protein 4 μM, compound 40 μM) is “significant heat shift”.

For `Cc1ccc(C(=O)O)c(C(=O)Nc2ccc(-c3nc4ccc(C)cc4s3)cc2)c1` [compound 2, reference compound], the “ΔT (melting temperature shift)” value at LC3B (1-125) [1] (Table 2, comparative compounds) was determined as 0 °C. The compound further displayed an IC50 against GST-LC3B (Table 2, comparative compounds) of 50 µM.

“5-phenyl-2- (((2-(4-(benzoyl) piperazin-1-yl) ethyl)amino) methylene) cyclohexane-1,3- dione [G]”: at LC3B (1-125) [1] (Table 1), the “ΔT (melting temperature shift)” value came out at 9.83 °C. For the same compound, the 50% inhibitory concentration (IC50) at GST-LC3B (Table 1, 25° C.) stood at 4.83 µM.

`CCNC(=S)N1CCN(CCNC=C2C(=O)CC(c3ccccc3)CC2=O)CC1` (stereo not drawn) [F, 5-phenyl-2-(((2-(4-(ethyl-aminothiocarbonyl)piperazin-1-yl)ethyl)amino)methylene) cyclohexane-1,3-dione] showed an IC50 against GST-LC3B (Table 1, 25° C.) of 6.54 µM.

Turning to `O=C1CC(c2cccc3[nH]ccc23)CC(=O)C1=CO` (stereo not drawn) [Compound I, 2-(hydroxy-methylene)-5-(1H-indol-4-yl)cyclohexane-1,3-dione], on LC3B (1-125) [1] (Table 1), the “ΔT (melting temperature shift)” value was 13.4 °C. Further, the half-inhibitory concentration (IC50) against GST-LC3B (Table 1, 25° C.) is 0.51 µM. In addition, the “covalent linkage in crystal complex” value on LC3B (2-119) is “covalently linked to the lysine residue (ε-amino group) at position 49 in LC3B”.

For the compound `CCOc1c(I)cc(/C=N\Nc2ccc(C(=O)O)cc2)cc1OC` [compound 3, reference compound], the “ΔT (melting temperature shift)” value on LC3B (1-125) [1] (Table 2, comparative compounds) worked out at 2.1 °C. For the same compound, the IC50 at GST-LC3B (Table 2, comparative compounds) stood at 28 µM.

Consider `Cc1ccc2c(C)c(C(=O)Nc3ccc(S(=O)(=O)Nc4onc(C)c4C)cc3)oc2c1` [compound 6, reference compound], for which the “ΔT (melting temperature shift)” value on LC3B (1-125) [1] (Table 2, comparative compounds) came out at 0 °C. The compound further came in with an IC50 at GST-LC3B (Table 2, comparative compounds) of 47 µM.

Turning to `COc1ccc(C2CC(=O)C(=CN(C)C)C(=O)C2)cc1` (stereo not drawn) [Compound D, 2-((Dimethylamino)methyl-ene)-5-(4-methoxyphenyl) cyclohexane-1,3-dione], the “ΔT (melting temperature shift)” value on LC3B (1-125) [1] (Table 1) is 10.82 °C. The “covalent modification of LC3B by mass spectrometry” value at LC3B (1-125) [2] is “covalently modified the lysine at position 49 in LC3B”. Further, half-maximal inhibition against GST-LC3B (Table 1, 25° C.) (IC50) was put at 1.46 µM.

Turning to `Cc1ccc(NC(=O)CN2CCN(CCNC=C3C(=O)CC(c4ccccc4)CC3=O)CC2)cc1` (stereo not drawn) [E], the “ΔT (melting temperature shift)” value at LC3B (1-125) [1] (Table 1) amounted to 10.21 °C. Further, the half-maximal inhibitory concentration (IC50) against GST-LC3B (Table 1, 25° C.) was determined as 5 µM.

Turning to `Cc1ccc(NC(=O)CN2CCN(CCNCC3C(=O)CC(c4ccc(C)cc4)CC3=O)CC2)cc1` (stereo not drawn) [Compound B], in the assay on Hela cells, the “cell autophagosomes (anti-LC3B immunofluorescence)” value is given as “cell autophagosomes accumulated”.
